Where two headings read alike, the source gives them in different places.
What was measured:
[1] = molecular target: P300 (Homo sapiens, UniProt Q09472); assay: Immunoblotting of P300 protein levels in LNCaP or 22RV1 cells; assay type: cell-based; set-up: LNCaP or 22RV1 cells that express CBP/P300 proteins were treated with GNE-781 or the bivalent compounds; endogenous in cells; host or cells: LNCaP (clone FGC) or 22RV1 cells; details: read-out: Degradation (10 nM)
Method in brief: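 P300/CBP levels quantified by chemiluminescent immunoblot band densitometry, normalized against tubulin or vinculin loading controls. Lysates came from LNCaP or 22RV1 cells exposed to compounds or DMSO vehicle for indicated times.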

[2] = test system: LNCaP cells; assay: LNCaP cell viability assay (CellTiter-Glo); assay type: cell-based; details: Homo sapiens, 72 h, LNCaP prostate cancer cell viability inhibition, 3 days
Method in brief: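 Three-day treatment of LNCaP cells (5000 per well) across a 12-point, 3-fold dilution series starting at 10 μM. ATP luminescence (CellTiter-Glo) relative to untreated controls gave dose-response curves fitted nonlinearly for IC50.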

[3] = percentage of inhibition of p300 at 10 nM (Table 3)
[4] = percentage of inhibition of p300 at 10 nM (Table 2)

P300, sequence (Q09472 whole entry): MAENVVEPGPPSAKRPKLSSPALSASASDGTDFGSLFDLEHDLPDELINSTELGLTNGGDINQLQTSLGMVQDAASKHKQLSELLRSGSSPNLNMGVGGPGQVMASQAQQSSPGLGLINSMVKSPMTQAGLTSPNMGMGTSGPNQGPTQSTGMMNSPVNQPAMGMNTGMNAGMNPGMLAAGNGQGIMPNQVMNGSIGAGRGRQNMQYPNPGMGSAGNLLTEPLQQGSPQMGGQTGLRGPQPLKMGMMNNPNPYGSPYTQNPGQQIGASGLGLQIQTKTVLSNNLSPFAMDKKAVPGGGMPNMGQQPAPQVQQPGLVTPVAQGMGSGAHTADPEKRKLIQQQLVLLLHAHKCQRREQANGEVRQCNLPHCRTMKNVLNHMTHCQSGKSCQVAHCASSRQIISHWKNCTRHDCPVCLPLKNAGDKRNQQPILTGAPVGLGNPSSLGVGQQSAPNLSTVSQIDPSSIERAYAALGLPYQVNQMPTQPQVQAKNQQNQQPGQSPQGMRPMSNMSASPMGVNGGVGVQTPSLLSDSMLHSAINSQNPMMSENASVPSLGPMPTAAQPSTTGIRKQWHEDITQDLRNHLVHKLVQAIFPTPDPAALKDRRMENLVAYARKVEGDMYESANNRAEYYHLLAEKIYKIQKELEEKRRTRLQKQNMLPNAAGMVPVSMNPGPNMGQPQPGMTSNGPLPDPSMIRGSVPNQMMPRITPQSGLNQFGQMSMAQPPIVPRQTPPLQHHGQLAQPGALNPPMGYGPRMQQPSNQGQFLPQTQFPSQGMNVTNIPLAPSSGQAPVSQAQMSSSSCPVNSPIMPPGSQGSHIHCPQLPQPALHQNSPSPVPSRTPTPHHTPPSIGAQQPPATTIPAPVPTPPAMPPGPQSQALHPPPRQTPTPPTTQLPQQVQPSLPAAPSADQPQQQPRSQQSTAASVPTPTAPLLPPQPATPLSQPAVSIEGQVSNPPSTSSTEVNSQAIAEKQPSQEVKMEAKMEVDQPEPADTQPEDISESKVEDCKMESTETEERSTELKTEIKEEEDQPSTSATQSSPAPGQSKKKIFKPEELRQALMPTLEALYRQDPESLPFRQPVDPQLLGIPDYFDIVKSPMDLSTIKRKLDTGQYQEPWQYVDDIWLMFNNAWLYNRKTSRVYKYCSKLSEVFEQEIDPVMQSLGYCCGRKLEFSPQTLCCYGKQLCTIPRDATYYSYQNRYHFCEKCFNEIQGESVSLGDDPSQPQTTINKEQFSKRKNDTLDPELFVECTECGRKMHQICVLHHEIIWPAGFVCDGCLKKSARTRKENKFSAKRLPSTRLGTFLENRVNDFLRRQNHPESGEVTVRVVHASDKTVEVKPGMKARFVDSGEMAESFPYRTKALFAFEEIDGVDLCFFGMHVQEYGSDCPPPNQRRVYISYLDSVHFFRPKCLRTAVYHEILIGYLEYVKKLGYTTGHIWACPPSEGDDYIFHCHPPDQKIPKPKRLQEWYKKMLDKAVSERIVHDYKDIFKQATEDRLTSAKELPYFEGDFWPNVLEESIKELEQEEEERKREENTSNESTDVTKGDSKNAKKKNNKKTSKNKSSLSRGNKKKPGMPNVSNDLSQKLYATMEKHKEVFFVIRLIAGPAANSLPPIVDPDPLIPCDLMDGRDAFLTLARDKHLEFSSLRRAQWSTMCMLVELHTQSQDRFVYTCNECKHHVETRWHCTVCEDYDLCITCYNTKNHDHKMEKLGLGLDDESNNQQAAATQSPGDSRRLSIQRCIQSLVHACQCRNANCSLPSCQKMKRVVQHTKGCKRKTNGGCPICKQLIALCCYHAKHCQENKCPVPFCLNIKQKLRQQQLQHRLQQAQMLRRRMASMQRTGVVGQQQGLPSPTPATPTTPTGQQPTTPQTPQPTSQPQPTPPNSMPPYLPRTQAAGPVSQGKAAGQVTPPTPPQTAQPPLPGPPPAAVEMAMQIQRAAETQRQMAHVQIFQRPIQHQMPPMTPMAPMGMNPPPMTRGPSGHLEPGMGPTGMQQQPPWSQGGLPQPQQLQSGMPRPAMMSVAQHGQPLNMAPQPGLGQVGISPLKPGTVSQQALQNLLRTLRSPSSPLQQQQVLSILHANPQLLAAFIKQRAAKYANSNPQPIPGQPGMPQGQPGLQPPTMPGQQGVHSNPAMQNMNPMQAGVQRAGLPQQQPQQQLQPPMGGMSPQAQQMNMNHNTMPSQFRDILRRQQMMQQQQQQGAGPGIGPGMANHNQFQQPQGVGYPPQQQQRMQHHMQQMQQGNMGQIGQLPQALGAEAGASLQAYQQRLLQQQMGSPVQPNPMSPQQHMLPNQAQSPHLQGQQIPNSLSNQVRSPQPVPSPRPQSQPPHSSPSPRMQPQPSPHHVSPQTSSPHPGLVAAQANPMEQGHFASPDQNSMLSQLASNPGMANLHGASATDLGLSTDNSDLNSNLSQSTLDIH

Structure (SMILES)	inhibition at 0.01 µM [1, 3]	IC50 ([2]; CellTiter-Glo (Table 3))	inhibition at 0.01 µM [1, 4]	IC50 ([2]; CellTiter-Glo (Table 2))	inhibition at 0.01 µM [1]
CNC(=O)N1CCc2c(c(N3CCCc4cc(-c5cnn(C)c5)c(C(F)F)cc43)nn2C2CCN(C(=O)CCCCCCNc3ccc4c(c3)n(C)c(=O)n4C3CCC(=O)NC3=O)CC2)C1 (stereo not drawn) [P-129, 3-(7-(difluoromethyl)-6-(1-methyl-1H-pyrazol-4-yl)-3,4-dihydroquinolin-1(2H)-yl)-1-(1-(7-((1-(2,6-dioxopiperidin-3-yl)-3-methyl-2-oxo-2,3-dihydro-1H-benzo[d]imidazol-5-yl)amino)heptanoyl)piperidin-4-yl)-N-methyl-1,4,6,7-tetrahydro-5H-pyrazolo[4,3-c]pyridine-5-carboxamide]	> 80%	0.2 nM			
CNC(=O)N1CCc2c(c(N3CCCc4cc(-c5cnn(CC(=O)NCCCCCNc6cccc7c6C(=O)N(C6CCC(=O)NC6=O)C7=O)c5)c(C(F)F)cc43)nn2C2CCOCC2)C1 (stereo not drawn) [P-040, 3-(7-(Difluoromethyl)-6-(1-(2-((5-((2-(2,6-dioxopiperidin-3-yl)-1,3-dioxoisoindolin-4-yl)amino)pentyl)amino)-2-oxoethyl)-1H-pyrazol-4-yl)-3,4-dihydroquinolin-1(2H)-yl)-N-methyl-1-(tetrahydro-2H-pyran-4-yl)-1,4,6,7-tetrahydro-5H-pyrazolo[4,3-c]pyridine-5-carboxamide]			< 20%	96.4 nM	
CNC(=O)N1CCc2c(c(N3CCCc4cc(-c5cnn(CC(=O)NCC(=O)N[C@H](C(=O)N6C[C@H](O)C[C@H]6C(=O)NCc6ccc(-c7scnc7C)cc6)C(C)(C)C)c5)c(C(F)F)cc43)nn2C2CCOCC2)C1 [P-044]			< 20%	> 10000 nM	
CNC(=O)N1CCc2c(c(N3CCCc4cc(-c5cnn(C)c5)c(C(F)F)cc43)nn2C2CCN(C(=O)CCCCCCCCC(=O)N[C@H](C(=O)N3C[C@H](O)C[C@H]3C(=O)NCc3ccc(-c4scnc4C)cc3)C(C)(C)C)CC2)C1 [P-062, 3-(7-(Difluoromethyl)-6-(1-methyl-1H-pyrazol-4-yl)-3,4-dihydroquinolin-1(2H)-yl)-1-(1-(10-(((S)-1-((2S,4R)-4-hydroxy-2-((4-(4-methylthiazol-5-yl)benzyl)carbamoyl)pyrrolidin-1-yl)-3,3-dimethyl-1-oxobutan-2-yl)amino)-10-oxodecanoyl)piperidin-4-yl)-N-methyl-1,4,6,7-tetrahydro-5H-pyrazolo[4,3-c]pyridine-5-carboxamide]	20 to 50%	35 nM			
CNC(=O)N1CCc2c(c(N3CCCc4cc(-c5cnn(C)c5)c(C(F)F)cc43)nn2C2CCN(C(=O)CCOCCOCCOCCNc3ccc4c(c3)C(=O)N(C3CCC(=O)NC3=O)C4=O)CC2)C1 (stereo not drawn) [P-010, 3-(7-(Difluoromethyl)-6-(1-methyl-1H-pyrazol-4-yl)-3,4-dihydroquinolin-1(2H)-yl)-1-(1-(3-(2-(2-(2-((2-(2,6-dioxopiperidin-3-yl)-1,3-dioxoisoindolin-5-yl)amino)ethoxy)ethoxy)ethoxy)propanoyl)piperidin-4-yl)-N-methyl-1,4,6,7-tetrahydro-5H-pyrazolo[4,3-c]pyridine-5-carboxamide]			20 to 50%	152 nM	
CNC(=O)N1CCc2c(c(N3CCCc4cc(-c5cnn(CC(=O)NCCCNc6ccc7c(c6)C(=O)N(C6CCC(=O)NC6=O)C7=O)c5)c(C(F)F)cc43)nn2C2CCOCC2)C1 (stereo not drawn) [P-017, 3-(7-(Difluoromethyl)-6-(1-(2-((3-((2-(2,6-dioxopiperidin-3-yl)-1,3-dioxoisoindolin-5-yl)amino)propyl)amino)-2-oxoethyl)-1H-pyrazol-4-yl)-3,4-dihydroquinolin-1(2H)-yl)-N-methyl-1-(tetrahydro-2H-pyran-4-yl)-1,4,6,7-tetrahydro-5H-pyrazolo[4,3-c]pyridine-5-carboxamide]			< 20%	99.2 nM	
CC(=O)N1CCc2c(c(N3CCCc4cc(-c5cnn(C)c5)c(C(F)F)cc43)nn2C2CCN(CCN3CCC(COc4cccc5c4C(=O)N(C4CCC(=O)NC4=O)C5=O)CC3)CC2)C1 (stereo not drawn) [P-167, 4-((1-(2-(4-(5-Acetyl-3-(7-(difluoromethyl)-6-(1-methyl-1H-pyrazol-4-yl)-3,4-dihydroquinolin-1(2H)-yl)-4,5,6,7-tetrahydro-1H-pyrazolo[4,3-c]pyridin-1-yl)piperidin-1-yl)ethyl)piperidin-4-yl)methoxy)-2-(2,6-dioxopiperidin-3-yl)isoindoline-1,3-dione]		92 nM			< 20%

The next lines start with results.

inhibition at 0.01 µM [1, 3]	IC50 ([2]; CellTiter-Glo (Table 3))	inhibition at 0.01 µM [1, 4]	IC50 ([2]; CellTiter-Glo (Table 2))	Structure (SMILES)	inhibition at 0.01 µM [1]
> 80%	9.6 nM			CC(=O)N1CCc2c(c(N3CCCc4cc(-c5cnn(C)c5)c(C(F)F)cc43)nn2C2CCN(C(=O)CCCCCNc3ccc4c(c3)n(C)c(=O)n4C3CCC(=O)NC3=O)CC2)C1 (stereo not drawn) [P-116, 3-(5-((6-(4-(5-acetyl-3-(7-(difluoromethyl)-6-(1-methyl-1H-pyrazol-4-yl)-3,4-dihydroquinolin-1(2H)-yl)-4,5,6,7-tetrahydro-1H-pyrazolo[4,3-c]pyridin-1-yl)piperidin-1-yl)-6-oxohexyl)amino)-3-methyl-2-oxo-2,3-dihydro-1H-benzo[d]imidazol-1-yl)piperidine-2,6-dione]	
> 80%	12.1 nM			CNC(=O)N1CCc2c(c(N3CCCc4cc(-c5cnn(C)c5)c(C(F)F)cc43)nn2C2CCN(C(=O)CN3CCC(CCc4cccc5c4C(=O)N(C4CCC(=O)NC4=O)C5=O)CC3)CC2)C1 (stereo not drawn) [P-104, 3-(7-(difluoromethyl)-6-(1-methyl-1H-pyrazol-4-yl)-3,4-dihydroquinolin-1(2H)-yl)-1-(1-(2-(4-(2-(2-(2,6-dioxopiperidin-3-yl)-1,3-dioxoisoindolin-4-yl)ethyl)piperidin-1-yl)acetyl)piperidin-4-yl)-N-methyl-1,4,6,7-tetrahydro-5H-pyrazolo[4,3-c]pyridine-5-carboxamide]	
> 80%	41.2 nM			CC(=O)N1CCc2c(c(N3CCCc4cc(-c5cnn(C)c5)c(C(F)F)cc43)nn2C2CCN(C(=O)CCCCCOc3cccc4c3C(=O)N(C3CCC(=O)NC3=O)C4=O)CC2)C1 (stereo not drawn) [P-117, 4-((6-(4-(5-Acetyl-3-(7-(difluoromethyl)-6-(1-methyl-1H-pyrazol-4-yl)-3,4-dihydroquinolin-1(2H)-yl)-4,5,6,7-tetrahydro-1H-pyrazolo[4,3-c]pyridin-1-yl)piperidin-1-yl)-6-oxohexyl)oxy)-2-(2,6-dioxopiperidin-3-yl)isoindoline-1,3-dione]	
50 to 80%	22.3 nM			CC(=O)N1CCc2c(c(N3CCCc4cc(-c5cnn(C)c5)c(C(F)F)cc43)nn2C2CCN(C(=O)CCCCNc3cccc4nnn(C5CCC(=O)NC5=O)c(=O)c34)CC2)C1 (stereo not drawn) [P-155, 3-(5-((5-(4-(5-acetyl-3-(7-(difluoromethyl)-6-(1-methyl-1H-pyrazol-4-yl)-3,4-dihydroquinolin-1(2H)-yl)-4,5,6,7-tetrahydro-1H-pyrazolo[4,3-c]pyridin-1-yl)piperidin-1-yl)-5-oxopentyl)amino)-4-oxobenzo[d][1,2,3]triazin-3(4H)-yl)piperidine-2,6-dione]	
< 20%	122 nM			CNC(=O)N1CCc2c(c(N3CCCc4cc(-c5cnn(C)c5)c(C(F)F)cc43)nn2C2CCN(C(=O)CCOCCOCCOCCOCCNc3cccc4c3C(=O)N(C3CCC(=O)NC3=O)C4=O)CC2)C1 (stereo not drawn) [P-054, 3-(7-(Difluoromethyl)-6-(1-methyl-1H-pyrazol-4-yl)-3,4-dihydroquinolin-1(2H)-yl)-1-(1-(1-((2-(2,6-dioxopiperidin-3-yl)-1,3-dioxoisoindolin-4-yl)amino)-3,6,9,12-tetraoxapentadecan-15-oyl)piperidin-4-yl)-N-methyl-1,4,6,7-tetrahydro-5H-pyrazolo[4,3-c]pyridine-5-carboxamide]	
		> 80%	7.1 nM	CNC(=O)N1CCc2c(c(N3CCCc4cc(-c5cnn(C)c5)c(C(F)F)cc43)nn2C2CCN(C(=O)CCCCNc3ccc4c(c3)C(=O)N(C3CCC(=O)NC3=O)C4=O)CC2)C1 (stereo not drawn) [P-004, 3-(7-(difluoromethyl)-6-(1-methyl-1H-pyrazol-4-yl)-3,4-dihydroquinolin-1(2H)-yl)-1-(1-(5-((2-(2,6-dioxopiperidin-3-yl)-1,3-dioxoisoindolin-5-yl)amino)pentanoyl)piperidin-4-yl)-N-methyl-1,4,6,7-tetrahydro-5H-pyrazolo[4,3-c]pyridine-5-carboxamide]	
> 80%	191 nM			CC(=O)N1CCc2c(c(N3CCCc4cc(-c5cnn(C)c5)c(C(F)F)cc43)nn2C2CCN(CC3CCN(CC#Cc4cccc5c4C(=O)N(C4CCC(=O)NC4=O)C5=O)CC3)CC2)C1 (stereo not drawn) [P-150, 4-(3-(4-((4-(5-Acetyl-3-(7-(difluoromethyl)-6-(1-methyl-1H-pyrazol-4-yl)-3,4-dihydroquinolin-1(2H)-yl)-4,5,6,7-tetrahydro-1H-pyrazolo[4,3-c]pyridin-1-yl)piperidin-1-yl)methyl)piperidin-1-yl)prop-1-yn-1-yl)-2-(2,6-dioxopiperidin-3-yl)isoindoline-1,3-dione]	
		20 to 50%	> 10000 nM	CNC(=O)N1CCc2c(c(N3CCCc4cc(-c5cnn(C)c5)c(C(F)F)cc43)nn2C2CCN(C(=O)CCOCCNc3ccc4c(c3)C(=O)N(C3CCC(=O)NC3=O)C4=O)CC2)C1 (stereo not drawn) [P-008, 3-(7-(Difluoromethyl)-6-(1-methyl-1H-pyrazol-4-yl)-3,4-dihydroquinolin-1(2H)-yl)-1-(1-(3-(2-((2-(2,6-dioxopiperidin-3-yl)-1,3-dioxoisoindolin-5-yl)amino)ethoxy)propanoyl)piperidin-4-yl)-N-methyl-1,4,6,7-tetrahydro-5H-pyrazolo[4,3-c]pyridine-5-carboxamide]	

Reference: patent US20230073777A1, “CYCLIC-AMP RESPONSE ELEMENT BINDING PROTEIN (CBP) AND/OR ADENOVIRAL E1A BINDING PROTEIN OF 300 KDA (P300) DEGRADATION COMPOUNDS AND METHODS OF USE” (CULLGEN (SHANGHAI), INC., priority 2019, published 2023)
